Experimental data taken from patent US20160115540A1, “PRODRUGS AND DRUGS” (Biogen MA Inc., priority 2013, published 2016).
Counter-ions that a name gives are not always drawn.

Tested on: jejunum
Assay: Transcriptional profiling on Affymetrix GeneChips, single dose, naïve mice: jejunum
Format: in vivo, C57BL/6 mice
Description: Treated mice were sacrificed at 2, 7, or 12 hours. Tissues (liver, spleen, kidney, jejunum, cortex, hippocampus, striatum and whole blood) were collected and analyzed by transcriptional profiling on mouse Affymetrix GeneChips.
Tissues (liver, spleen, kidney, jejunum, cortex, hippocampus, striatum and whole blood) were collected and analyzed by transcriptional profiling on mouse Affymetrix GeneChips.
Animals were exposed to CO2 and whole blood collected via cardiac puncture. Two 100 μl aliquots of whole blood were collected in 1.5 mL microcentrifuge tubes and snap frozen in liquid nitrogen. Peripheral (liver, spleen, kidney and jejunum) and CNS brain (cerebellum, hippocampus, striatum and cortex) tissues were harvested and snap frozen in liquid nitrogen, with special care taken to collect tissues of similar size and from the same location. All samples were stored at −80° C. until RNA extraction was conducted.
For RNA preparation, frozen tissues were placed in 2 mL RNAse-free 96-well blocks with 1.5 mL QIAzol Lysis Reagent (QIAgen) and a 3.2 mm stainless steel bead (BioSpec Products, Bartlesville, Okla.). Tissues were disrupted for four cycles of 45 seconds in a Mini-Beadbeater (Biospec Products). RNA was extracted in chloroform and the aqueous phase was mixed with an equal volume of 70% ethanol. Extracted RNA was applied to RNeasy 96 plates and purified by the spin method according to the manufacturer's protocol (RNeasy 96 Universal Tissue Protocol, QIAgen, Hilden Germany).
Automated sample amplifications and biotin labelings were carried out using the NuGEN Ovation RNA Amplification system V2 (Cat #3100), Ovation WB reagent (Cat #1300) and Encore Biotin module (Cat #4200) (NuGEN Technologies, Inc, San Carlos, Calif.) according to manufacturer's recommendations using an Arrayplex automated liquid handler (Beckman Coulter, Indianapolis, Ind.). Two micrograms of biotin labeled sscDNA probe were hybridized to Affymetrix GeneChip Affymetrix HT_MG-430_PM plate arrays with modified conditions as described in Allaire et al. Washing and staining of the hybridized arrays were completed as described in the GeneChip Expression analysis technical manual for HT plate arrays using the Genechip® Array Station (Affymetrix, Santa Clara, Calif.) with modifications as described in Allaire et al. The processed GeneChip® plate arrays were scanned using GeneTitan scanner (Affymetrix, Santa Clara, Calif.).
Affymetrix scans were subject to quality control (QC) measures. These tests included a visual inspection of the distribution of raw signal intensities and an assessment of RNA degradation, relative log expression (RLE), and normalized unsealed standard error (NUSE). All sample scans that passed these QC metrics were included in the analysis.
All CEL files were subjected to GC-content-based Robust Multi-array Average (GCRMA) normalization (version 2.20.0) (Irizarry R A, et al. Nucleic Acids Res 2003; 31:e15; Li C, et al. Genome Biol 2001; 2:[…]0032). Expression levels were log (base 2) transformed.
All calculations and analyses were carried out using R (version 2.11.1) and Bioconductor computational tools (Gentleman R. Springer Science+Business Media 2005).

[1] = 100DMF-vs-Veh or 100MMF-vs-Veh, 12 h

COC(=O)/C=C/C(=O)OC [DMF, dimethyl fumarate]
FC Lrp8 (1440882_PM_at) (100DMF-vs-100MMF, 2 h): −1.69
FC Alb (1425260_PM_at) (100DMF-vs-100MMF, 7 h): 9.97
FC G6pc (1417880_PM_at) (100DMF-vs-100MMF, 7 h): −2.45
FC Abcc3 (1428988_PM_at) [1]: 2.02
FC Acsm5 (1437662_PM_at) [1]: 1.86
FC Akr1b8 (1448894_PM_at) [1]: 17.57
FC Akr1c12 (1450455_PM_s_at) [1]: 1.72
FC Akr1c19 (1455454_PM_at) [1]: 3.20
FC Blvrb (1451386_PM_at) [1]: 1.53
FC Cbr3 (1427912_PM_at) [1]: 25.95
FC Ces1e (1419510_PM_at) [1]: 2.70
FC Ces1f (1424266_PM_s_at) [1]: 6.17
FC Ces1g (1449486_PM_at) [1]: 7.40
FC G6pd2 (1422327_PM_s_at) [1]: 1.74
FC Gpx2 (1449279_PM_at) [1]: 1.67
FC Gsr (1421816_PM_at) [1]: 2.20
FC Gss (1441931_PM_x_at) [1]: 1.53
FC Gsta2 (1421040_PM_a_at) [1]: 5.65
FC Gsta2 (1421041_PM_s_at) [1]: 2.04
FC Gsta3 (1423436_PM_at) [1]: 10.36
FC Gsta3 (1423437_PM_at) [1]: 7.86
FC Gstm1 (1425627_PM_x_at) [1]: 4.63
FC Gstm1 (1448330_PM_at) [1]: 4.15
FC Gstm3 (1427473_PM_at) [1]: 2.03
FC Gstm3 (1427474_PM_s_at) [1]: 1.57
FC Gstm4 (1424835_PM_at) [1]: 5.03
FC Gstm6 (1422072_PM_a_at) [1]: 1.95
FC Nqo1 (1423627_PM_at) [1]: 2.30
FC Pir (1429001_PM_at) [1]: 3.79
FC Setd4 (1425239_PM_at) [1]: 1.66
FC Setd4 (1460373_PM_a_at) [1]: 1.52
FC Slc5a4b (1422757_PM_at) [1]: 2.21
FC Ugt2b5 (1419622_PM_at) [1]: 4.92
FC Ugt2b35 (1439624_PM_at) [1]: 2.37
FC Ugt2b36 (1455595_PM_at) [1]: 2.94
Number of genes, DMF Only / MMF Only (Jejunum): 9
Akr1c13 (1418672_PM_at) differential expression (Jejunum, 2 hr): 1.62
Areg (1421134_PM_at) differential expression (Jejunum, 2 hr): 3.58
B3galt5 (1428397_PM_at) differential expression (Jejunum, 2 hr): −2.77
Cbr1 (1460196_PM_at) differential expression (Jejunum, 2 hr): 1.55
Ces1e (1419510_PM_at) differential expression (Jejunum, 2 hr): 1.85
Dnase2a (1430135_PM_at) differential expression (Jejunum, 2 hr): 1.77
Dppa5a (1416552_PM_at) differential expression (Jejunum, 2 hr): 3.07
Dusp4 (1428834_PM_at) differential expression (Jejunum, 2 hr): 1.51
Entpd5 (1433763_PM_at) differential expression (Jejunum, 2 hr): 1.53
Ereg (1419431_PM_at) differential expression (Jejunum, 2 hr): 2.50
Ero1l (1419030_PM_at) differential expression (Jejunum, 2 hr): 1.92
Esd (1441604_PM_at) differential expression (Jejunum, 2 hr): 1.71
Fam13a (1456611_PM_at) differential expression (Jejunum, 2 hr): 1.54
Gclc (1424296_PM_at) differential expression (Jejunum, 2 hr): 4.25
Gsr (1421816_PM_at) differential expression (Jejunum, 2 hr): 2.23
Gss (1441931_PM_x_at) differential expression (Jejunum, 2 hr): 1.95
Gsta3 (1423436_PM_at) differential expression (Jejunum, 2 hr): 4.03
Gsta4 (1416368_PM_at) differential expression (Jejunum, 2 hr): 1.72
Gstm1 (1416416_PM_x_at) differential expression (Jejunum, 2 hr): 2.30
Mafg (1448916_PM_at) differential expression (Jejunum, 2 hr): 2.20
Nos2 (1420393_PM_at) differential expression (Jejunum, 2 hr): −2.39
Nqo1 (1423627_PM_at) differential expression (Jejunum, 2 hr): 2.16
Osgin1 (1424022_PM_at) differential expression (Jejunum, 2 hr): 2.08
Pgm2 (1437240_PM_at) differential expression (Jejunum, 2 hr): 2.15
Prss8 (1418320_PM_at) differential expression (Jejunum, 2 hr): 2.60
Ptk6 (1442923_PM_at) differential expression (Jejunum, 2 hr): −2.42
Setd4 (1435405_PM_at) differential expression (Jejunum, 2 hr): 1.91
Slc35e3 (1428805_PM_at) differential expression (Jejunum, 2 hr): 1.53
Slc40a1 (1417061_PM_at) differential expression (Jejunum, 2 hr): 2.33
Srr (1453421_PM_at) differential expression (Jejunum, 2 hr): 1.99
Srxn1 (1425351_PM_at) differential expression (Jejunum, 2 hr): 1.71
Tifa (1426501_PM_a_at) differential expression (Jejunum, 2 hr): −2.43
Tox3 (1436600_PM_at) differential expression (Jejunum, 2 hr): 1.70
Tsku (1440230_PM_at) differential expression (Jejunum, 2 hr): 1.61
Ugt2b5 (1419622_PM_at) differential expression (Jejunum, 2 hr): 3.40
Ugt2b36 (1455595_PM_at) differential expression (Jejunum, 2 hr): 2.07
Unc5c1 (1429950_PM_at) differential expression (Jejunum, 2 hr): −1.53
Abcc3 (1428988_PM_at) differential expression (Jejunum, 7 hr): 1.88
Acsm5 (1437662_PM_at) differential expression (Jejunum, 7 hr): 1.60
Akr1c13 (1418672_PM_at) differential expression (Jejunum, 7 hr): 1.61
Cbr1 (1460196_PM_at) differential expression (Jejunum, 7 hr): 1.65
Ces1e (1419510_PM_at) differential expression (Jejunum, 7 hr): 2.10
Ddc (1426215_PM_at) differential expression (Jejunum, 7 hr): 1.74
G6pd2 /// G6pdx (1422327_PM_s_at) differential expression (Jejunum, 7 hr): 1.82
G6pdx (1448354_PM_at) differential expression (Jejunum, 7 hr): 1.54
Gclc (1424296_PM_at) differential expression (Jejunum, 7 hr): 2.06
Gm3776 /// Gsta1 /// Gsta2 (1421041_PM_s_at) differential expression (Jejunum, 7 hr): 1.72
Gsr (1421816_PM_at) differential expression (Jejunum, 7 hr): 2.83
Gss (1441931_PM_x_at) differential expression (Jejunum, 7 hr): 1.97
Gsta3 (1423436_PM_at) differential expression (Jejunum, 7 hr): 4.27
Gsta4 (1416368_PM_at) differential expression (Jejunum, 7 hr): 2.09
Gstm1 (1416416_PM_x_at) differential expression (Jejunum, 7 hr): 3.19
Gstm2 (1416411_PM_at) differential expression (Jejunum, 7 hr): 1.58
Gstm4 (1424835_PM_at) differential expression (Jejunum, 7 hr): 3.83
Gstm6 (1422072_PM_a_at) differential expression (Jejunum, 7 hr): 1.94
Htatip2 (1451814_PM_a_at) differential expression (Jejunum, 7 hr): 1.51
Nqo1 (1423627_PM_at) differential expression (Jejunum, 7 hr): 2.31
Pir (1429001_PM_at) differential expression (Jejunum, 7 hr): 3.79
Setd4 (1435405_PM_at) differential expression (Jejunum, 7 hr): 1.90
Slc5a4b (1422757_PM_at) differential expression (Jejunum, 7 hr): 1.67
Txnrd1 (1424487_PM_x_at) differential expression (Jejunum, 7 hr): 1.60
Ugt2b5 (1419622_PM_at) differential expression (Jejunum, 7 hr): 3.42
Ugt2b36 (1455595_PM_at) differential expression (Jejunum, 7 hr): 2.23
Abcc3 (1428988_PM_at) differential expression (Jejunum, 12 hr): 2.02
Acsm5 (1437662_PM_at) differential expression (Jejunum, 12 hr): 1.86
Akr1c12 /// Akr1c13 (1450455_PM_s_at) differential expression (Jejunum, 12 hr): 1.72
Aldh1a7 (1418601_PM_at) differential expression (Jejunum, 12 hr): 1.65
Blvrb (1451386_PM_at) differential expression (Jejunum, 12 hr): 1.53
Ces1e (1419510_PM_at) differential expression (Jejunum, 12 hr): 2.70
G6pd2 /// G6pdx (1422327_PM_s_at) differential expression (Jejunum, 12 hr): 1.74
Gm3776 /// Gsta1 /// Gsta2 (1421041_PM_s_at) differential expression (Jejunum, 12 hr): 2.04
Gpx2 (1449279_PM_at) differential expression (Jejunum, 12 hr): 1.67
Gsr (1421816_PM_at) differential expression (Jejunum, 12 hr): 2.20
Gss (1441931_PM_x_at) differential expression (Jejunum, 12 hr): 1.53
Gsta3 (1423436_PM_at) differential expression (Jejunum, 12 hr): 10.36
Gsta4 (1416368_PM_at) differential expression (Jejunum, 12 hr): 2.58
Gstm1 (1416416_PM_x_at) differential expression (Jejunum, 12 hr): 4.15
Gstm2 (1416411_PM_at) differential expression (Jejunum, 12 hr): 2.04
Gstm4 (1424835_PM_at) differential expression (Jejunum, 12 hr): 5.03
Gstm6 (1422072_PM_a_at) differential expression (Jejunum, 12 hr): 1.95
Nqo1 (1423627_PM_at) differential expression (Jejunum, 12 hr): 2.30
